Source: paper PMC11347369, “Synthesis and antibacterial action of 3’,6’-disubstituted spectinomycins” (The Journal of Antibiotics, 2024)
Converted amounts (≈) assume the structure as drawn. Counter-ions that a name gives are not always drawn. Like-named read-outs stand apart in the source and are kept apart here.

How the values were obtained:
[1] = tested on: A. baumannii ATCC 19606; test: MIC broth microdilution, A. baumannii; assay type: cell-based, Acinetobacter baumannii; conditions: Acinetobacter baumannii, ATCC19606, read-out: Minimum Inhibitory Concentration
[2] = tested on: E. faecalis ATCC 29212; test: MIC broth microdilution, E. faecalis; assay type: cell-based; conditions: Enterococcus faecalis, ATCC29212, read-out: Minimum Inhibitory Concentration
[3] = tested on: M. tuberculosis H37Rv ∆1258c; test: microbe, parasite or virus in culture; assay type: cell-based; conditions: Mycobacterium tuberculosis, 168 h
[4] = tested on: M. tuberculosis H37Rv
[5] = tested on: E. faecium ATCC 19434; test: MIC broth microdilution, E. faecium; assay type: cell-based; conditions: Enterococcus faecium, ATCC19434, read-out: Minimum Inhibitory Concentration
[6] = tested on: M. abscessus ATCC 19977; test: microbe, parasite or virus in culture; conditions: Mycobacteroides abscessus, ATCC19977, 72 h, read-out: WT MIC
[7] = tested on: E. coli K12; conditions: E. coli K12 MIC versus K12 ∆tolC MIC
[8] = tested on: M. abscessus ATCC 19977 ∆2780c; test: microbe, parasite or virus in culture; assay type: cell-based, Mycobacterium abscessus; conditions: Mycobacteroides abscessus, ATCC19977, 72 h, read-out: ∆2780c MIC
[9] = tested on: S. aureus USA300; test: MIC broth microdilution, S. aureus; assay type: cell-based; conditions: Staphylococcus aureus, USA300, read-out: Minimum Inhibitory Concentration
[10] = tested on: M. abscessus ATCC 19977
[11] = tested on: E. coli K12; test: microbe, parasite or virus in culture; conditions: Escherichia coli, K12, read-out: Minimum Inhibitory Concentration
[12] = tested on: K. pneumoniae ATCC 700603; test: MIC broth microdilution, K. pneumoniae; assay type: cell-based, Klebsiella pneumoniae; conditions: Klebsiella pneumoniae, ATCC700603, read-out: Minimum Inhibitory Concentration
[13] = target: T1, M. smegmatis ribosomes (strain SZ380) (Mycolicibacterium smegmatis, UniProt A0QSG6); test: Mycobacterial cell-free translation inhibition assay; assay type: biochemical, Mycobacterium smegmatis
T1 construct: S30 extracts were prepared by addition of dithiothreitol (DTT) to 1 mM and centrifugation; endogenous in cells; host or cells: M. smegmatis strain SZ380, S30 cell extract
T1 sequence (A0QSG6 whole entry): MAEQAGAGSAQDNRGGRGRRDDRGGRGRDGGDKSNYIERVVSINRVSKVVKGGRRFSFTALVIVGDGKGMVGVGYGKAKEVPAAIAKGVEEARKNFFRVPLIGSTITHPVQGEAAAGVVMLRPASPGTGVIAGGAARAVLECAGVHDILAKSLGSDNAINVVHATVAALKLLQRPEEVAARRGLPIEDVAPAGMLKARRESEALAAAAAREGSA
Description: Mycobacterial cell-free translation inhibition assays were performed as described previously. In brief, M. smegmatis strain SZ380 bacterial cells were disrupted and emulsified with a microfluidizer processor (Microfluidics, Westwood, MA, USA) at 25,000 lb/in^2. S30 extracts were prepared by addition of dithiothreitol (DTT) to 1 mM and centrifugation at 30,000 × g at 4 °C. Translation reaction mixtures containing either test article or DMSO vehicle control and 4 μl of the S30 extract, 0.2 mM amino acid mix, 6 μg tRNA (Sigma), 0.4 μg hFluc mRNA, 0.3 μl protease inhibitor (complete, EDTA-free, Roche), 12 U RNAse inhibitor (Ribolock, Thermo Scientific), 6 μl S30 premix without amino acids (Promega), plus water to a final reaction volume of 15 μl were incubated for 1 h at 37 °C. The reaction was stopped on ice before adding 75 μl of luciferase assay reagent (Promega) and recording of luminescence. Regression analysis and IC50 calculations were performed using GraphPad Prism version 9.3.1 by using the equation [log(inhibitor) vs. response–Variable slope (four parameters)] with the fitting method: least squares (ordinary) fit. Y = Bottom + (Top-Bottom)/(1 + 10^((X-LogIC50))).

[14] = tested on: M. smegmatis strain MC^2 155; test: MIC broth microdilution, M. smegmatis; assay type: cell-based, Mycobacterium smegmatis; conditions: Mycolicibacterium smegmatis, MC^2155, 72 h, read-out: WT MIC
[15] = tested on: S. pyogenes ATCC 700294; test: MIC broth microdilution, S. pyogenes; assay type: cell-based; conditions: Streptococcus pyogenes, ATCC700294, read-out: Minimum Inhibitory Concentration
[16] = tested on: P. aeruginosa ATCC 15692; test: MIC broth microdilution, P. aeruginosa; assay type: cell-based, Pseudomonas aeruginosa; conditions: Pseudomonas aeruginosa, ATCC15692, read-out: Minimum Inhibitory Concentration
[17] = tested on: S. epidermidis ATCC 14990; test: MIC broth microdilution, S. epidermidis; assay type: cell-based; conditions: Staphylococcus epidermidis, ATCC14990, read-out: Minimum Inhibitory Concentration
[18] = tested on: S. pneumoniae R6; test: MIC broth microdilution, S. pneumoniae; assay type: cell-based; conditions: Streptococcus pneumoniae, read-out: Minimum Inhibitory Concentration
[19] = tested on: M. tuberculosis H37Rv; test: microbe, parasite or virus in culture; conditions: Mycobacterium tuberculosis, 168 h, read-out: WT MIC
[20] = tested on: E. coli K12 ∆tolC; test: microbe, parasite or virus in culture; assay type: cell-based; conditions: Escherichia coli, read-out: Minimum Inhibitory Concentration
[21] = target: T1, M. smegmatis ribosomes (strain SZ380); conditions: read-out: Ribo. IC50, cited from earlier work
[22] = cell-free translation, M. smegmatis SZ380 S30 extract, luciferase readout, read-out: Ribo. IC50

SMILES | MIC [1] [µg/mL] | MIC [2] [µg/mL] | MIC [3] [µg/mL] | Efflux Ratio [4] | MIC [5] [µg/mL] | MIC [6] [µg/mL] | E. coli Efflux Ratio [7] | MIC [8] [µg/mL] | MIC [9] [µg/mL] | Efflux Ratio [10] | MIC [11] [µg/mL] | MIC [12] [µg/mL] | IC50 [13, 22] [nM] | MIC [14] [µg/mL] | MIC [15] [µg/mL] | MIC [16] [µg/mL] | MIC [17] [µg/mL] | MIC [18] [µg/mL] | MIC [19] [µg/mL] | MIC [20] [µg/mL] | further results
CCCCC1CC(O)(CN)C2(O)OC3C(NC)C(O)C(NC)C(O)C3OC2O1 [AmTroSPC (13), 3’-(R)-Aminomethyl-6’-propyl-dihydrospectinomycin] | > 64 | > 64 | 8 (≈ 19.7 µM) | 8 | > 64 | 64 (≈ 158 µM) | >2 | 64 (≈ 158 µM) | > 64 | 1 | > 64 | > 64 | 2710 | 128 (≈ 316 µM) | 16 (≈ 39.5 µM) | > 64 | > 64 | 16 to 32 (≈ 39.5 to 78.9 µM) | 64 (≈ 158 µM) | 32 (≈ 78.9 µM) | –
CCCC[C@@H]1C[C@@H](N)[C@]2(O)O[C@@H]3[C@@H](NC)[C@@H](O)[C@@H](NC)[C@H](O)[C@H]3O[C@@H]2O1 [Amino TroSPC (11), 3’-(R)-Amino-3’-deoxy-6’-propyl-dihydrospectinomycin trihydrochloride] | > 64 | > 64 | 2 | 8 | > 64 | 64 | >2 | 64 | > 64 | 1 | > 64 | > 64 | 640 | 32 | 32 | > 64 | > 64 | 64 | 16 | 32 | –
CN[C@@H]1[C@H](O)[C@H](NC)[C@H]2O[C@]3(O)[C@H](O[C@@H]2[C@H]1O)O[C@H](C)C[C@H]3NC(=O)Cc1ccccn1 [SPA (3), reference compound] | – | – | 4 (≈ 8.84 µM) | – | – | – | – | – | – | 4 | – | – | – | – | – | – | – | – | 2 (≈ 4.42 µM) | – | IC50 ([21]; converted from µg/mL to µM from what was previously reported): 1.8 µM
CCCC[C@@H]1C[C@@H](NC(=O)Cc2ccccn2)[C@]2(O)O[C@@H]3[C@@H](NC)[C@@H](O)[C@@H](NC)[C@H](O)[C@H]3O[C@@H]2O1 [TroSPA (4), 3′-Deoxy-3′(R)-[(pyridin-2-yl)acetylamino]-6’-propyl-dihydrospectinomycin dihydrochloride] | > 64 | > 64 | 1 | 2 | > 64 | 64 | >2 | 16 | > 64 | 4 | > 64 | > 64 | – | 32 | 8 | > 64 | > 64 | 16 | 2 | 32 | IC50 [13]: 2450 nM
CN[C@@H]1[C@H](O)[C@H](NC)[C@H]2O[C@]3(O)[C@H](O[C@@H]2[C@H]1O)O[C@H](C)C[C@@]3(O)CNCc1ccc(F)cc1 [bAmSPC (5), reference compound] | – | – | 2 (≈ 4.24 µM) | 8 | – | 128 (≈ 271 µM) | – | 8 (≈ 17 µM) | – | 16 | – | – | – | – | – | – | – | – | 16 (≈ 33.9 µM) | – | IC50 ([21]; previously reported): 1.18 µM
CCCCC1CC(O)(CNCc2ccc(F)cc2)C2(O)OC3C(NC)C(O)C(NC)C(O)C3OC2O1 [bAmTroSPC (6), 3′(R)-[(4-Fluorobenzyl)aminomethyl]-6’-propyl-dihydrospectinomycin trihydrochloride] | > 64 | 32 | 1 | 8 | 32 | 64 | 4–8 | 64 | 64 | 1 | 32 | > 64 | 2490 | 64 | 2 | > 64 | 16 | 4 | 8 | 4 to 8 | –
CN[C@@H]1[C@H](O)[C@H](NC)[C@H]2O[C@]3(O)[C@H](O[C@@H]2[C@H]1O)O[C@H](C)C[C@@]3(O)CNCCc1ccc(F)cc1 [eAmSPC (7), reference compound] | – | – | 0.5 (≈ 1.03 µM) | 4 | – | 4 (≈ 8.24 µM) | – | 1 (≈ 2.06 µM) | – | 4 | – | – | – | 4 (≈ 8.24 µM) | – | – | – | – | 2 (≈ 4.12 µM) | – | IC50 ([21]; previously reported): 1.01 µM
CCCCC1CC(O)(CNCCc2ccc(F)cc2)C2(O)OC3C(NC)C(O)C(NC)C(O)C3OC2O1 [eAmTroSPC (8), 3′(R)-[(4-Fluorophenylethyl)aminomethyl]-6’-propyl-dihydrospectinomycin trihydrochloride] | > 64 | 32 | 0.25 | 8 | 32 | 8 | 8–16 | 8 | 64 | 1 | 64 | > 64 | – | 8 | 4 | > 64 | 8 | 8 | 2 | 4 to 8 | IC50 [13]: 2310 nM
